Assay results published in patent US12527776B2, “Treatment of ciliopathies using inhibitors of glucosylceramide synthase (GCS)” (GENZYME CORPORATION, priority 2019, dated 2026).

Experiments:
[1] = test system: Bbs2−/− mice; assay: Olfaction (buried treat test) and main olfactory epithelium immunofluorescence in Bbs2−/− mice; assay type: in vivo, mouse; conditions: feed from 1 to 6 months of age
From the text: (§1) A Bbs2^−/− mouse model has been described by Nishimura D Y et al. (Proc Natl Acad Sci, 101:16588-16593 (2004)) with exons 5-14 of Bbs2 replaced with a neomycin cassette. Mice were backcrossed into 129/SvJ background. Treated Bbs2^−/− mice were fed ad libitum with 0.033% w/w of Compound 1 incorporated in feed from the age of 1 month to 6 months. Bbs2^−/− and Wt control animals were fed regular 5053 chow (LabDiet). To establish metabolic disease, Bbs2^−/− mice were left untreated until four-months of age, and then treated with Compound 1 incorporated into feed for the fifth and sixth months.
Animal olfaction was tested using a protocol adapted from Yang M. et al. (Curr Protoc Neurosci, DOI:10.1002/0471142301.ns0824s48 (2009)). Before testing, animals were acclimatised for three days and then fasted for 18 hours in cage with Alpha Dri bedding. Treat (Bioserv Supreme Mini-Treats, Chocolate flavor) was buried 1 cm deep in a clean cage with 3 cm deep bedding. Animals were placed in cage and time was recorded when treat was found and bitten into.
Paraffin-embedded samples of nasal cavities from Wt and Bbs2^−/− mice were prepared and analysed as described supra. The primary antibodies used were acetylated tubulin (Cell Signaling Technology), cytokeratin 14 (Protein Tech), SRY-Box 2 (Cell Signaling Technology), doublecortin (Cell Signaling Technology), and olfactory marker protein (Wako).

[2] = test system: Bbs2−/− mice adipose tissue; assay: RNA sequencing of adipose tissue of Bbs2−/− mice; assay type: in vivo, mouse; conditions: 0.033% w/w in feed from 1 to 6 months of age
Experimental: Total RNA was isolated from previously flash frozen adipose tissue dissected from four six-month old Wt (Wt #1-4), Bbs2^−/− (Bbs #1-4) or Bbs2^−/− treated with 0.033% w/w of Compound 1 (Bbs+Cmpd1 #1-4) in feed from 1 to 6 months of age using TRIzol (Thermo Fisher Scientific) and chloroform extractions. RNA samples were further purified with RNAeasy Mini Kit (Qiagen) to remove genomic DNA. The concentration and purity of RNA was assessed with a NanoDrop 8000 microspectrophotometer (Thermo Fisher Scientific). RNA integrity was then evaluated with a 4200 TapeStation System (Agilent Technologies).
The sequencing libraries were generated using the TruSeq Stranded mRNA Library Prep Kit as per the manufacturer recommendations (Illumina). Sequencing was performed using High Output NextSeq 500/550 v2.5 kits on an Illumina NextSeq 500 platform (2×75 bp paired-end reads).
Data analysis was performed with Array Studio V10.1 (Omicsoft Corporation, a Qiagen company) and mapped to Genome Reference Consortium Mouse Build 38. Heatmaps are generated using a Center Scale normalization algorithm on median normalized Log 2 expression values as per the software developer (Omicsoft).

[3] = test system: Bbs2−/− mice; assay: Metabolic parameters in Bbs2−/− mice; assay type: in vivo, mouse
From the text: as §1
Body composition was analyzed using an EchoMRI™. Measurements of the fat mass and of lean mass were recorded and percent of body fat was calculated. Body composition was calculated using the following formula: fat mass/(fat mass+lean mass).
Food weights were recorded from the food hopper and bedding. Average food consumption per animal per day was estimated using the following formula: [(food weight at start of period−(food weight at end of period in hopper[…])]/#animals in the cage/#days of observation.
Blood was collected during necropsy and incubated for 15 minutes at room temperature to allow clot formation. Clot was removed by centrifugation at 15,000 rpm for 5 minutes to collect serum. Leptin ELISA kit (R&D Systems) was used to measure leptin concentrations according to the manufacturer's instructions.
Total RNA was isolated from homogenized adipose tissue dissected from 6-month old mice using TRizol and chloroform extraction followed by the RNAeasy Mini Kit Purification (Qiagen), quantified using the NanoDrop 2300 system, and was reverse transcribed using High Capacity cDNA Reverse Transcription Kit (Applied Biosystems). Primers for Fas and Srebf1 were purchased from Applied Biosystems. Quantitative PCR was performed in duplicate for each sample on an Applied Biosystems RT-PCR machine using Taqman Universal Master Mix (Thermo Fisher) according to the manufacturer's instructions. Relative amounts of mRNA were determined using the Comparative CT Method for quantification and were normalized to GAPDH mRNA levels.
Automated digital image analysis was performed on whole adipose tissues using Visiopharm Image Analysis software (DK-2970 Hoersholm, Denmark, version 6.9.1). Two custom-written applications were created and run consecutively for each digital image. The first application detected adipose tissue using threshold classification and outlined the area as a Region of Interest (ROI). The second application used threshold to classify the tissue inside the ROI into three categories: Cytoplasm (cytoplasmic membrane), Adipose (Adipocyte), and Other (unwanted artifacts, large vessels, other tissue). Post processing steps included enclosing adipose with cytoplasm and selecting adequate adipose cells for counting by removing any adipose with a form factor less than 0.5.
Paraffin-embedded samples of brain tissue from Wt and Bbs2^−/− mice were cut and 4 micrometer sections were boiled in Antigen Retrieval solution (DAKO) in a pressure cooker to unmask antigens. Sections were blocked for 1 hour with 3% BSA followed by incubation with primary antibodies to adenylate cyclase III (Santa Cruz Biotechnology) diluted in 3% BSA overnight at 4° C. Alexa Fluor 488 secondary antibody (Invitrogen) was used at the dilution 1:1000. Images were acquired on a Leica DM5500B microscope fitted with ×40 and ×60 objectives using Leica Application Suite Advance Fluorescence software (Leica Microsystems).

[4] = test system: Bbs2−/− mouse model of BBS; assay: GL1 analysis in tissues of Bbs2−/− mice; assay type: in vivo; conditions: 0.033% w/w in feed from 1 to 6 months of age
From the text: as §1
Quantitative analysis of glycosylceramide was performed by liquid chromatography and tandem mass spectrometry (LC/MS/MS). Briefly, 100 mg of tissue were homogenized in 1 ml of water with Mini Beadbeater (BioSpec Products, Inc., Bartlesville, OK). 10 μl of homogenate was extracted with 1 ml of 90% of 96:2:1:1 acetonitrile/methanol/acetic acid/water (v/v/v/v) (mobile phase A) and 10% of 98:1:1 methanol/acetic acid/water (v/v/v) (mobile phase B); both contained 5 mM ammonium acetate. The samples were placed on a VX-2500 tube vortexer (VWR International, LLC, MA) for 5 min and then centrifuged for 4 min at 8,400 rpm (Beckman Coulter, Inc., IN). […] Quantitation was performed using GL1 standard (Glucocerebrosides, Gaucher's spleen; Matreya, LLC, Pleasant Gap, PA).

[5] = 0.033% w/w in feed from 1 to 6 months of age
[6] = established disease, 0.033% w/w in feed starting at 4 months of age, after one month
[7] = white adipose tissue, feed from 1 to 6 months of age

CC(C)(NC(=O)OC1CN2CCC1CC2)c1cccc(-c2ccc(F)cc2)c1 (centres unmarked) [Compound 1, 1-azabicyclo[2.2.2]oct-3-yl [2-(4′-fluorobiphenyl-3-yl)propan-2-yl]carbamate]
adenylate cyclase III (ACIII) in the MOE [1]: increase in ACIII
cilia in the MOE (acetylated tubulin) [1]: preservation/restoration of the cilia in the MOE
differentiation in MOE (immature vs mature neurons) [1]: correction of this phenotype to resemble that of wild type animals
olfaction defect (time to find a buried treat) [1]: restored
expression of genes in adipogenesis, ciliogenesis and sphingolipid homeostasis pathways [2]: normalizes the expression of genes
body fat [3, 5]: significant decrease
body weight [3, 5]: significant decrease
food consumption [3, 5]: significant decrease
serum leptin [3, 5]: reduced to wild type levels
cilia in the hypothalamus ([3]; Compound in feed): preserved the hypothalamic cilia
body fat [3, 6]: decreased
body weight [3, 6]: decreased
serum leptin [3, 6]: decreased
adipocyte size ([3]; established disease, after the two-month treatment): decrease of adipocyte size
adipocyte size [3, 7]: reduction of adipocyte size
expression of pro-adipogenic gene Srebf1 [3, 7]: corrected upon treatment to the levels observed in Wt control
levels of GL1 in the brain, kidney, liver and serum [4]: reduction
